Reference: patent US11510886B2, “Metformin amino acid compounds and methods of using the same” (Laboratorios Silancs S.A. DE C.V., priority 2016, dated 2022)
Where two headings read alike, the source gives them in different places.

What was measured:
[1] = tested on: rat model of streptozotocin-induced diabetes; test: Blood glucose levels in rat model of streptozotocin-induced diabetes, 14 days oral; conditions: for Blood glucose levels before TI/RI administration, Day −3 (before STZ administration): rats, baseline before STZ and before first TI/RI administration; for Blood glucose levels before TI/RI administration, Day −3 (before STZ administration) / Blood glucose levels before TI/RI administration, Day −1: mean ± SD; for Blood glucose levels before TI/RI administration, Day −1: STZ-diabetic rats, before first TI/RI administration, n.d. = all values beyond ULOD of glucometer (600 mg/dl), § n=1, ¢ n=2
blood glucose level = test: Effect of metformin compounds on the glucokinetic profile after oral glucose overload; format: in vivo, Rat; conditions: for blood glucose level vs vehicle, after the oral glucose overload: 750 mg/kg for five days, glucose 3 g/kg, isolated time points 0.25-4 hours; for Blood glucose level, 0.25 h post-glucose overload / Blood glucose level, 0.5 h post-glucose overload / Blood glucose level, 2 h post-glucose overload / Blood glucose level, 6 h post-glucose overload / Blood glucose level, pre-glucose overload / Blood glucose level, 1 h post-glucose overload / Blood glucose level, 4 h post-glucose overload / Blood glucose level, 3 h post-glucose overload: rat, 750 mg/kg referred to metformin base, mean ± SD; for Blood glucose level, 0.25 h post-glucose overload / Blood glucose level, pre-glucose overload / Blood glucose level, 1 h post-glucose overload / Blood glucose level, 4 h post-glucose overload: *p<0.05 vs vehicle; for Blood glucose level, 3 h post-glucose overload: *p<0.05, **p<0.01 vs vehicle
[2] = STZ-diabetic male rats, mean ± SD; for Absolute body weight, Day −3 (before STZ administration): baseline before STZ and before first TI/RI administration; for Absolute body weight, Day −1 / Absolute body weight, Day −2 (distribution of groups): before first TI/RI administration
[3] = terms of European Pharmacopeia 7.0 section 5.11
[4] = for Body weight (g) On administration day / Body weight (g) On distribution day / Body weight (g) On first administration day: Mean ± SD; for Body weight (g) On distribution day: before dosing
[5] = rat, in vivo, po, 250 mg/kg
[6] = Groups L-U, 750 mg/kg, first column of this head
[7] = Groups L-U, 750 mg/kg, second column of this head

Molecule	Blood glucose levels before TI/RI administration, Day −3 (before STZ administration) [1] [mg/dL]	Blood glucose level, 0.25 h post-glucose overload (blood glucose level) [mg/dL]	Blood glucose level, 0.5 h post-glucose overload (blood glucose level) [mg/dL]	Blood glucose level, 2 h post-glucose overload (blood glucose level) [mg/dL]	Blood glucose level, 6 h post-glucose overload (blood glucose level) [mg/dL]	Absolute body weight, Day −3 (before STZ administration) [2] [g]	Absolute body weight, Day −1 [2] [g]	Body weight (g) On administration day ([4]; Groups B-K, 250 mg/kg) [g]	Body weight (g) On distribution day ([4]; Groups B-K, 250 mg/kg) [g]	Body weight (g) On distribution day ([4]; Groups L-U, 750 mg/kg) [g]	Body weight (g) On first administration day [4, 6] [g]	Body weight (g) On first administration day [4, 7] [g]	AUC(0-24) [5] [µg·h/mL]	Cmax [5] [ng/mL]	Metformin base concentration in plasma, 0.5 h post-administration [5] [µg/mL]	Metformin base concentration in plasma, 1 h post-administration [5] [µg/mL]	Metformin base concentration in plasma, 2 h post-administration [5] [µg/mL]	Metformin base concentration in plasma, 4 h post-administration [5] [µg/mL]	Metformin base concentration in plasma, 8 h post-administration [5] [µg/mL]	Metformin base concentration in plasma, 24 h post-administration [5] [µg/mL]	further results
CN(C)C(=N)NC(=N)N.C[C@H](N)C(=O)O [Metformin alaninate, metformin alaninate]	121.33 ± 6.51	90.50 ± 13.72	94.75 ± 13.52	87.75 ± 9.00	84.00 ± 7.83	232.07 ± 6.17	208.00 ± 2.65	202.49 ± 12.79	187.52 ± 10.28	186.18 ± 8.04	200.80 ± 10.15	195.43 ± 11.23	126.09	16400	14.77 ± 3.29	13.00 ± 1.39	14.97 ± 3.57	16.40 ± 5.23	3.56 ± 1.19	0.22 ± 0.08	blood glucose levels 2 hours after administration on day 2 vs diabetic animals treated with vehicle ([1]; diabetic rats, 250 mg/kg as metformin base): significantly lower blood glucose levels; blood glucose level vs vehicle, after the oral glucose overload (blood glucose level; Dunn's test): statistically significant decreases; Blood glucose level, pre-glucose overload (blood glucose level): 82.25 ± 7.68 mg/dL; Physical form (hygroscopicity) ([3]; listed as 13. ALANINE): Hygroscopic solid; Physical form (hygroscopicity) ([3]; listed as alanine): hygroscopic; macroscopic necropsy findings ([4]; 750 mg/kg for five days): small additional lobe
CC[C@H](C)[C@H](N)C(=O)O.CN(C)C(=N)NC(=N)N [Metformin isoleucinate, metformin isoleucinate]	115.33 ± 4.93	–	87.75 ± 12.97	76.75 ± 11.44	70.75 ± 17.04	224.63 ± 9.17	211.30 ± 7.51	197.30 ± 10.62	189.10 ± 7.62	190.40 ± 7.71	203.33 ± 5.11	196.80 ± 11.54	148.77	21430	12.53 ± 1.91	14.47 ± 2.58	10.05 ± 2.33	21.43 ± 3.35	4.94 ± 0.80	0.24 ± 0.08	blood glucose level vs vehicle, before the oral glucose overload (blood glucose level; 750 mg/kg (referred to metformin base) once a day for five days, Dunn's test): statistically significant decrease; blood glucose level vs vehicle, after the oral glucose overload (blood glucose level; Dunn's test): statistically significant decreases; blood glucose level vs vehicle, after the oral glucose overload (blood glucose level; Dunn's test, listed as metformin isoleucinate): statistically significant decrease; Blood glucose level, 1 h post-glucose overload (blood glucose level): 89.75 ± 19.77 mg/dL; Blood glucose level, 4 h post-glucose overload (blood glucose level): 80.50 ± 7.51 mg/dL; Absolute body weight, Day −2 (distribution of groups) [2]: 225.17 ± 10.85 g; Physical form (hygroscopicity) ([3]; listed as 12. ISOLEUCIN): Hygroscopic solid; Physical form (hygroscopicity) ([3]; listed as isoleucine): hygroscopic
dimetformin aspartate	120.00 ± 2.65	96.00 ± 17.15	98.50 ± 13.70	95.25 ± 8.77	89.75 ± 5.50	228.17 ± 10.17	205.23 ± 6.83	188.42 ± 5.42	186.02 ± 5.04	192.05 ± 6.89	207.73 ± 9.57	197.30 ± 10.15	122.96	15500	12.43 ± 2.05	15.50 ± 4.49	13.47 ± 3.13	6.05 ± 0.98	6.50 ± 1.57	0.22 ± 0.11	Blood glucose levels before TI/RI administration, Day −1 [1]: 572.00^§ ± n.d.^§ mg/dL; Blood glucose level, 1 h post-glucose overload (blood glucose level): 103.75 ± 9.29 mg/dL; Blood glucose level, 3 h post-glucose overload (blood glucose level): 92.00 ± 6.16 mg/dL; Blood glucose level, 4 h post-glucose overload (blood glucose level): 92.75 ± 4.11 mg/dL; Blood glucose level, pre-glucose overload (blood glucose level): 83.25 ± 14.89 mg/dL; Absolute body weight, Day −2 (distribution of groups) [2]: 219.53 ± 13.36 g
diphenformin aspartate	115.33 ± 10.02	–	–	–	–	–	–	–	–	–	–	–	–	–	–	–	–	–	–	–	–
metformin leucinate	118.33 ± 10.02	87.75 ± 31.40	90.75 ± 28.16	99.00 ± 2.45	85.25 ± 2.22	234.57 ± 1.87	207.93 ± 0.99	195.70 ± 9.85	187.38 ± 6.74	185.53 ± 12.04	199.25 ± 9.43	193.53 ± 11.92	133.32	15430	10.21 ± 1.77	15.43 ± 0.81	12.30 ± 2.41	12.57 ± 4.13	5.88 ± 0.80	0.21 ± 0.08	Blood glucose levels before TI/RI administration, Day −1 [1]: 563.00 ± 36.39 mg/dL; Blood glucose level, 1 h post-glucose overload (blood glucose level): 99.50 ± 27.50 mg/dL; Blood glucose level, 3 h post-glucose overload (blood glucose level): 91.75 ± 6.99 mg/dL; Blood glucose level, 4 h post-glucose overload (blood glucose level): 89.75 ± 3.69 mg/dL; Blood glucose level, pre-glucose overload (blood glucose level): 72.25 ± 9.29 mg/dL; Absolute body weight, Day −2 (distribution of groups) [2]: 221.90 ± 6.16 g; Physical form (hygroscopicity) [3]: Deliquescent
metformin threoninate	117.33 ± 14.05	110.33 ± 16.92	102.67 ± 8.02	93.67 ± 10.69	89.33 ± 3.06	231.13 ± 10.20	207.33 ± 8.52	193.13 ± 9.66	186.22 ± 10.13	188.55 ± 6.35	202.15 ± 5.48	194.20 ± 4.58	107.62	14300	8.81 ± 2.00	14.30 ± 1.70	11.53 ± 2.61	11.43 ± 1.66	3.91 ± 0.33	0.23 ± 0.08	Blood glucose level, 1 h post-glucose overload (blood glucose level): 101.67 ± 11.85 mg/dL; Blood glucose level, 3 h post-glucose overload (blood glucose level): 91.67 ± 6.03 mg/dL; Blood glucose level, 4 h post-glucose overload (blood glucose level): 87.67 ± 2.08 mg/dL; Blood glucose level, pre-glucose overload (blood glucose level): 90.33 ± 12.34 mg/dL; Absolute body weight, Day −2 (distribution of groups) [2]: 216.43 ± 8.74 g; mortality and clinical signs ([4]; glucokinetic groups, 750 mg/kg for five days): died during the study just after the fifth test item administration
